For the experiment, the system named is Mus musculus. Put plainly: Inhibition of morphine-mediated intestinal motility in male Kunming mouse assessed as propulsion function at 4 mg/kg, ip pretreated with compound for 30 mins followed by morphine addition and measured after 30 mins by charcoal gavage based Intestinal motility assay. It counts as functional, organism-based. The following applies: time 60.0 min.

Molecules are shown by their SMILES. Active and inactive are the calls of the source. The rule behind the calls is not given here.

Regarding `C=CCN1CC[C@]23c4c5ccc(O)c4O[C@H]2C(=O)CC[C@@]3(O)[C@H]1C5`, the outcome was Active.

Source of the values: ChEMBL document CHEMBL6109111.
